# Assay results taken from patent US3959311A, “Oxotremorine antagonists” (priority 1967, dated 1976).
# Read-outs that look alike come from different tables or passages of the source.
# Key:
# [1] = test system: oxotremorine-induced tremor; settings: cited from earlier work
# [2] = test system: tremoromimetic effects of oxotremorine; assay type: in vivo, mice
# Excerpt: (§1) This "tremorolytic" dose is designated as T. As a standard for the peripheral effect the dose of the compound in mg/kg, which doubles the diameter of the pupil, is given. This "mydriatic" dose is designated as M. The ratio between M and T will constitute a standard for specific central effect of the substance. A higher value for M/T corresponds to a higher specificity.
# [3] = test system: oxotremorine tremor response; assay: Oxotremorine antagonism: affinity constant from shift of median effective tremor dose of oxotremorine (Dixon up-and-down method); assay type: in vivo, mice; settings: AL-301 set equal to 1.0
# Procedure: It was tested in the following manner:
# Four or more groups, each containing six female mice weighing 22 to 26 grams, were selected. To establish a control, each member of the first group was dosed in sequence with oxotremorine in the absence of any test compound.
# In the Dixon method the first animal is treated at an arbitrarily selected level and the presence or absence of tremor response is noted. An increased or decreased dosage is then selected according to the schedule specified by the Dixon procedure for the second animal which would tend to produce a change in the tremor response.
# For each test group, the increased median effective dose of oxotremorine was determined in the same manner.
# To compare the potency of the test compound the affinity constant was obtained from the data. The affinity constant is that concentration of test compound which when administered blocks the oxotremorine response so that twice the concentration of oxotremorine is necessary to evoke the same response as was produced in the absence of the test compound.
# diameter of the pupil = assay: animal or person; assay type: in vivo, mice; settings: Mus musculus
# Excerpt: as §1
# [4] = mydriatic dose / tremorolytic dose, higher value = higher specificity
# [5] = dose which doubles the diameter of the pupil, mice, read-out: Mydriatic Dose
compound,measurement,setting,value
"O=C1CCCN1CC#CCN1CCCC1 [oxotremorine, N-(4-pyrrolidino-2-butynyl)-pyrrolidin-2-one]",effects of oxotremorine,"[1]; immediately after injection by intravenous routes, several species of laboratory animals","induces violent generalized tremors, spasticity, hypokinesia and parasympathomimetic effects"
CC(C#CCN1CCCCCC1)N1CCCC1=O (stereo not shown) [N-(1-methyl-4-perhydroazepino-2-butynyl)-pyrrolidin-2-one],Tremorolytic Dose (T),"[2]; mouse, in vivo, iv",0.32 mg/kg
same,M/T ratio (specific central effect),[2]; [4],6.25
same,Ratio of affinity constant dosages (relative potency),[3],9.0
same,ED (doubling of pupil diameter),diameter of the pupil; [5],2 mg/kg
CC(C#CCN1CCCC1)N1CCCC1=O (stereo not shown) [N-(1-methyl-4-pyrrolidino-2-butynyl)-pyrrolidin-2-one],Tremorolytic Dose (T),"[2]; dose which inhibits the effect of 150 μg/kg of oxotremorine i.v., mice",0.19 mg/kg
same,M/T ratio (specific central effect),[2]; [4],3.26
same,Ratio of affinity constant dosages (relative potency),[3],17.0
same,Ratio of affinity constant dosages (relative potency),[3]; listed as n = 4,17
same,ED (doubling of pupil diameter),diameter of the pupil; read-out: Mydriatic Dose (M),0.62 mg/kg
CC(C#CCN1CCCCC1)N1CCCC1=O (stereo not shown) [N-(1-methyl-4-piperidino-2-butynyl)-pyrrolidin-2-one],Ratio of affinity constant dosages (relative potency),[3],8.5
CN1[C@@H]2CC[C@H]1C[C@@H](OC(=O)C(CO)c1ccccc1)C2 (stereo partly shown) [atropine],antagonism of oxotremorine-induced tremor,[1]; in words,antagonize the oxotremorine-induced tremor
same,side effect: antagonism of peripheral cholinergic effects of oxotremorine,[1]; in words,antagonizing the peripheral cholinergic effects of oxotremorine
"OC(CCN1CCCCC1)(c1ccccc1)C1CCCCC1 (stereo not shown) [benzhexol, reference compound]",M/T ratio (specific central effect),"[2]; mouse, in vivo",0.21
same,Tremorolytic Dose (T),"[2]; mouse, in vivo, iv",5.5
same,ED (doubling of pupil diameter),diameter of the pupil; [5],1.15 mg/kg
"OC(CCN1CCCCC1)(c1ccccc1)C1CCCCC1 (stereo not drawn) [Artane, α-cyclohexyl-α-phenyl-1-piperidine-propanol, reference compound]",Ratio of affinity constant dosages (relative potency),[3],1.8
"CCN(CC)CCOC(=O)C1(c2ccccc2)CCCC1 [caramiphen, 1-phenylcyclopentanecarboxylic acid 2-diethylaminoethyl ester]",side effect: antagonism of peripheral cholinergic effects of oxotremorine,[1]; in vivo,antagonizing the peripheral cholinergic effects of oxotremorine
same,antagonism of oxotremorine-induced tremor,[1]; in words,antagonize the oxotremorine-induced tremor
